Data published in patent US6046168A, “Peptide inhibits blood triglyceride level” (Hankyu-Kyoei Bussan Co., Ltd., priority 1993, dated 2000).
Residues, ends and D or L forms follow the SMILES beside them.

Tested on: Healthy albino mice
Test: Serum TG elevation inhibiting action at the time of in vivo lipid loading (olive oil)
Conditions: for Ratio of Increase in Blood TG Levels (%): blood collected 3 hours after
Method: Serum TG elevation inhibiting action at the time of in vivo lipid loading was examined on the three peptides of the invention inhibiting elevations of TG levels in blood (i.e., the peptide having the amino acid sequence of SEQ ID NO: 1 and the peptides Val-Thr-Leu and Val-Tyr-Pro synthesized by the method described in Example 4). Healthy albino mice (5-10 weeks old; body weight: about 20-30 g) were used in this experiment. To each mouse, 250 mg of olive oil and an aqueous solution of the above peptide were administered orally. Three hours thereafter, blood was collected under anesthesia with Nembutal. After separation of the blood, the TG level in blood was determined.

`CC(C)C[C@H](NC(=O)[C@@H](NC(=O)[C@@H](N)C(C)C)[C@@H](C)O)C(=O)O` [Val--Thr--Leu, H-Val-Thr-Leu-OH] (H-Val-Thr-Leu-OH) was tested, and the “Ratio of Increase in Blood TG Levels (%)” value (dose 0.1 mg/mouse oral with 250 mg olive oil) was 30%, the “Ratio of Increase in Blood TG Levels (%)” value (dose 0.2 mg/mouse oral with 250 mg olive oil) was 33% and the “Ratio of Increase in Blood TG Levels (%)” value (dose 1.0 mg/mouse oral with 250 mg olive oil) was 73%. For the same compound, the “Ratio of Increase in Blood TG Levels (%)” value (dose 2.5 mg/mouse oral with 250 mg olive oil) was 76%, the “Ratio of Increase in Blood TG Levels (%)” value (dose 5.0 mg/mouse oral with 250 mg olive oil) was 79% and the “ID50: Dose (mg/mouse) exhibiting 50% inhibition” value (oral, mice loaded with 250 mg olive oil, blood TG after 3 hours) was 0.43 mg/mouse. For the same compound, the “Specific Activity” value (relative to the proteolysate (= 1), times) was 65.
